Laboratory results as given in US20150182431A1, “Compositions and Methods for Treatment of Hair with Reduced Hair Damage” (SYTHEON LTD, priority 2013, published 2015).

Details: for Fluorescence decay of fluorescein (FL), in words: 200 μM each, CuCl2 230 μM, CaCl2 2.3 mM
Protocol: The study was conducted in accordance with the methodology disclosed in “Novel Fluorometric Assay for Hydroxyl Radical Prevention Capacity Using Fluorescein as the Probe”, B Ou, M Hampsch-Woodill, J Flanagan, EK Deemer, R Prior, D Huang, J. Agric, Food Chem: 50(10); 2772-2777, 2002.
The Fenton reaction was initiated with the mixture of Cu^2+, CaCl2 and hydrogen peroxide at alkaline condition. Hydroxyl radicals were generated by the Fenton reagent mixture, oxidative damage was monitored by fluorescein (FL), a fluorescence probe sensitive to hydroxyl radicals. The loss of fluorescence intensity was an index of oxidation. Thus, the slower the fluorescence decay, the stronger the chelation for Cu^2+.

Compound	Chelating ability for copper, in words	Fluorescence decay of fluorescein (FL), in words	Chelation of Cu^2+ preventing the Fenton reaction, in words (equimolar amounts (230 μM) of compound and Cu^2+)	Attraction for calcium, in words (excess Ca^2+)
COc1cc(C=C(C(C)=O)C(C)=O)cc(OC)c1OC [Compd. 1E, 3-(3,4,5-trimethoxybenzylidene) 2,4-pentanedione]	excellent chelating ability for copper	barely noted	almost completely chelated	little attraction for calcium
O=C(O)CC(NCCNC(CC(=O)O)C(=O)O)C(=O)O (stereo not shown) [EDDS, Ethylenediamine-N,N′-disuccinic acid, reference compound]	not an effective chelating agent for copper	barely noted	–	–
O=C(O)CN(CCN(CC(=O)O)CC(=O)O)CC(=O)O [EDTA, Ethylenediamine tetraacetic acid, reference compound]	–	barely noted	–	–
